Assay results: US20200297711A1, “PHARMACEUTICAL COMPOSITION COMPRISING FGFR SELECTIVE TYROSINE KINASE INHIBITOR” (priority 2017, published 2020)

What was measured:
FGFR pathway = assay: Pharmacodynamics: serum Phosphate, FGF23 and 1,25-(OH)2-Vitamin D, PD markers of FGFR pathway inhibition; type: in vivo, human
Description: Serum concentrations of Phosphate, FGF23 and 1,25-(OH)2-Vitamin D, PD markers of FGFR pathway inhibition were measured before the administration of Compound A and on Day 15 of Cycle 1.

[1] = Dose escalation study: tolerability and safety (DLT, MTD, treatment emergent adverse events) of orally administered Compound A 1.5 succinate in patients with solid tumor; type: in vivo
Description: The following study was carried out in order to evaluate tolerability and safety when Compound A 1.5 succinate was orally administered to patients with solid tumor. We attempted to determine the maximum tolerated dose (MTD) by evaluating the dose limiting toxicity (DLT) when Compound A 1.5 succinate was orally administered to patients with solid tumor. Each dose in Examples is represented as a dose of Compound A in free form.
A Modified Toxicity Probability Interval (mTPI) design was employed to determine the MTD of Compound A. Each subject was assigned a dose of Compound A in accordance with the rules of the mTPI design based on a target dose-limiting toxicity (DLT) rate of 25% and the corresponding three toxicity probability intervals that was defined as 20 to 30% (proper dosing), 0 to 20% (underdosing) and 30 to 100% (overdosing). The entire dose assignment decision rule can be precalculated under the mTPI design and presented in two-way table as below.
In order to evaluate the PK when administered as a single dose, a single dose of Compound A for each treatment group (at the corresponding dosage for that group) was administered on Day 1. Compound A was administered when fasted, immediately after waking up with at least 10 hours fasting. Taking any meal was prohibited for 2 hours after administration and only drinking water was allowed.
Cycle 1 was started between 8 and 10 days after dosing in Cycle 0 and Compound A was administered continuously once daily. Compound A was administered at least 2 hours after breakfast, and any food intake was prohibited for 1 hour after administration. However, on Day 8 of Cycle 1, Compound A was administered immediately after waking up while the subject was fasted after at least 10 hours of overnight fasting in order to evaluate the PK. Taking any meals was prohibited for 2 hours after administration and only drinking water was allowed.
• (1) Grade 4 neutropenia that persists for more than 7 days or febrile neutropenia • (2) Grade 4 thrombocytopenia or Grade 3 thrombocytopenia that requires blood transfusion • (3) Any Grade 3 or higher non-hematological toxicity with the exception of: • a) Abnormal clinical laboratory values with no clinical significance. • b) Any events which can be managed and controlled to Grade 2 or less by maximal medical management. • (4) New calcification that is considered clinically significance in such as soft tissue, kidney, intestine, heart or lung confirmed by images • (5) Hyperphosphatemia defined as follows • a) >7 mg/dL>7d despite phosphate lowering therapies • b) >9 mg/dL despite phosphate lowering therapies. • (6) Development of any toxicity that is considered to be related to Compound A and where treatment interruption for 8 days or more from Cycle 0 to Cycle 1 is necessary.
The MTD was not defined and the recommended dose was determined to be 140 mg once daily.

[2] = tested on: FGFR2-fusion gene positive intrahepatic cholangiocarcinoma; assay: Anti-tumor activity, tumor size, patient; type: in vivo, human; details: 30 mg once daily, one patient, FGFR2-fusion gene positive (78%)
Description: When Compound A was administered once daily at 30 mg to a patient with FGFR2-fusion gene positive (78%) intrahepatic cholangiocarcinoma, the tumor size reduced by about 9%.

In the case of `CNC(=O)n1ccc2cc(Oc3ccnc(NC(=O)c4ccc(C5CCN(CCO)CC5)cc4)c3)c(OCCOC)cc21` [Compound A, 5-((2-(4-(1-(2-hydroxyethyl)piperidin-4-yl)benzamide)pyridin-4-yl)oxy)-6-(2-methoxyethoxy)-N-methyl-1H-indole-1-carboxamide], the “once-daily dosing at which increases of PD markers reached maximum” value (FGFR pathway; Day 15 of Cycle 1) is reported as 100 to 140 mg, the “change in serum Phosphate, FGF23 and 1,25-(OH)2-Vitamin D” value (FGFR pathway; Day 15 of Cycle 1 vs before administration) is reported as “dose-dependent increases in each marker” and the “death or adverse events leading to study drug withdrawal” value ([1]; all cohorts) is reported as “No death or adverse events leading to study drug withdrawal were reported”. The “ALP increased, Any Gr, n (%)” value ([1]; human, in vivo) was 3 (13), the “AST increased, Any Gr, n (%)” value ([1]; human, in vivo) was 4 (17) and the “ATL increased, Any Gr, n (%)” value ([1]; human, in vivo) was 6 (25). For the same molecule, the “ATL increased, ≥Gr3, n (%)” value ([1]; human, in vivo) was 2 (8), the “Anaemia, Any Gr, n (%)” value ([1]; human, in vivo) was 3 (13) and the “Constipation, Any Gr, n (%)” value ([1]; human, in vivo) was 2 (8). For the same molecule, the “Creatinine increased, Any Gr, n (%)” value ([1]; human, in vivo) was 9 (38), the “Decreased appetite, Any Gr, n (%)” value ([1]; human, in vivo) was 2 (8) and the “Decreased appetite, ≥Gr3, n (%)” value ([1]; human, in vivo) was 1 (4). For the same molecule, the “Diarrhoea, Any Gr, n (%)” value ([1]; human, in vivo) was 6 (25), the “Dysgeusia, Any Gr, n (%)” value ([1]; human, in vivo) was 3 (13) and the “Hyperphosphatemia, Any Gr, n (%)” value ([1]; human, in vivo) was 9 (38). For the same molecule, the “Lipase increased, Any Gr, n (%)” value ([1]; human, in vivo) was 5 (21), the “Lymphocyte count decreased, Any Gr, n (%)” value ([1]; human, in vivo) was 2 (8) and the “Malaise, Any Gr, n (%)” value ([1]; human, in vivo) was 2 (8). The “Nausea, Any Gr, n (%)” value ([1]; human, in vivo) was 5 (21), the “Neutrophil count decreased, Any Gr, n (%)” value ([1]; human, in vivo) was 2 (8) and the “Neutrophil count decreased, ≥Gr3, n (%)” value ([1]; human, in vivo) was 1 (4). The “Onychomadesis, Any Gr, n (%)” value ([1]; human, in vivo) was 2 (8), the “PPE syndrome, Any Gr, n (%)” value ([1]; human, in vivo) was 4 (17) and the “Retinal detachment, Any Gr, n (%)” value ([1]; human, in vivo) was 3 (13). For the same molecule, the “Stomatitis, Any Gr, n (%)” value ([1]; human, in vivo) was 2 (8), the “Vomiting, Any Gr, n (%)” value ([1]; human, in vivo) was 3 (13) and the “Vomiting, ≥Gr3, n (%)” value ([1]; human, in vivo) was 1 (4). For the same molecule, the “White blood cell count decreased, Any Gr, n (%)” value ([1]; human, in vivo) was 2 (8), the “adverse events leading to dose interruptions: anorexia” value ([1]; human, in vivo) was 2 patients and the “adverse events leading to dose interruptions: common cold” value ([1]; human, in vivo) was 1 patient. The “adverse events leading to dose interruptions: macular edema” value ([1]; human, in vivo) was 1 patient, the “adverse events leading to dose interruptions: nausea” value ([1]; human, in vivo) was 3 patients and the “adverse events leading to dose interruptions: neutrophil count decreased” value ([1]; human, in vivo) was 1 patient. For the same molecule, the “adverse events leading to dose interruptions: palmar-plantar erythrodysesthesia syndrome” value ([1]; human, in vivo) was 1 patient, the “adverse events leading to dose interruptions: pyrexia” value ([1]; human, in vivo) was 2 patients and the “adverse events leading to dose interruptions: vomiting” value ([1]; human, in vivo) was 2 patients. The “adverse events leading to dose reductions: ALT increased” value ([1]; human, in vivo) was 2 patients, the “adverse events leading to dose reductions: AST increased” value ([1]; human, in vivo) was 1 patient and the “adverse events leading to dose reductions: palmar-plantar erythrodysesthesia syndrome” value ([1]; human, in vivo) was 2 patients. For the same molecule, the “dose limiting toxicity (DLT)” value ([1]; human, in vivo) was “one patient at 180 mg dosing experienced the DLT (Grade 3 AST/ALT increased)”, the recommended dose ([1]; human, in vivo) was 140 mg and the “relation of serious adverse events to study drug” value ([1]; human, in vivo) was “none of them were considered to be related to Compound A”. For the same molecule, the “maximum tolerated dose (MTD)” value ([1]; once-daily dosing up to 180 mg) was “not defined” and the tumor size reduction [2] was “about 9%”.
